Test results published in patent publication US20200060276A1, “THIAZOLE COMPOUND AND HERBICIDE” (OAT Agrio Co., Ltd., priority 2017, published 2020).

Legend:
Type in all cases: in vivo
[1] = test system: Echinochloa crus-galli (L.) P. Beauv. var. formosensis Ohwi; experiment: Test for Herbicidal Effect in Flooding Treatment (#2), ECHDG at 2-2.5 leaf stage; details: for ECHDG (2-2.5L) #2 herbicidal effect (growth inhibition grade): flooding treatment at 2-2.5 leaf stage, dose 0.2 kg/ha, visual observation on day 21; for ECHDG (2-2.5L) #2 herbicidal effect (growth inhibition rating 0-5): flooding treatment #2, 2-2.5 leaf stage
Outline: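 Scoring is a visual 0–5 scale of growth inhibition (0 below 10%, 5 at 90% or more or full withering), taken 21 days after treatment in a glasshouse. Dose was 0.2 kg/ha, applied as acetone/Tween 80 aqueous solution onto flooded soil once seedlings reached the 2–2.5 leaf stage.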

[2] = test system: Echinochloa crus-galli (L.) P. Beauv. var. formosensis Ohwi; experiment: Test for Herbicidal Effect in Flooding Treatment (#1), ECHDG; details: for ECHDG #1 herbicidal effect (growth inhibition grade): flooding treatment at seeding, dose 2 kg/ha, visual observation on day 21; for ECHDG #1 herbicidal effect (growth inhibition rating 0-5): flooding treatment #1
Outline: (§1)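 Visual scores from 0 (<10% inhibition) to 5 (≥90% or complete withering) were taken 21 days after treatment of glasshouse-grown plants. Seeds were sown in soil flooded for 24 h beforehand, and compound was applied dropwise onto the surface at 2 kg/ha as an acetone solution diluted in water with Tween 80.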

[3] = test system: Scirpus juncoides; experiment: Test for Herbicidal Effect in Flooding Treatment (#1), SCIJU; details: for SCIJU #1 herbicidal effect (growth inhibition grade): flooding treatment at seeding, dose 2 kg/ha, visual observation on day 21; for SCIJU #1 herbicidal effect (growth inhibition rating 0-5): flooding treatment #1
Outline: as §1

[4] = test system: Cyperus microiria; experiment: Test for Herbicidal Effect in Flooding Treatment (#1), CYMIC; details: flooding treatment at seeding, dose 2 kg/ha, visual observation on day 21
Method: (#1) Test for Herbicidal Effect in Flooding Treatment: Styrol cups each having an opening diameter of 8 cm (about 52 cm^2) were respectively filled with soil (45 ml) which had been passed through a sieve (2 mm). Water (about 115 ml) was mixed with the soil such that the soil was flooded. After the soil stood still for 24 hours, Monochoria vaginalis, Echinochloa crus-galli (L.) P. Beauv. var. formosensis Ohwi, Cyperus difformis (umbrella sedge), and Scirpus juncoides were seeded. Each of the compounds of the present invention was dissolved in acetone, and the obtained product was then diluted with water containing Tween 80®. Each of the resultant chemical solutions was dropped on the entire surface of an associated one of treatment sections, so that each section was treated with 1 ml of the respective chemical solution (a dose of 2 kg/ha). After the treatment, the plants were grown in a glasshouse. On day 21, a survey was conducted on the herbicidal activity by visual observation, and evaluation was made according to the following criteria. 0: Growth inhibition effect is less than 10%. 1: Growth inhibition effect is equal to or greater than 10%, and less than 30%. 2; Growth inhibition effect is equal to or greater than 30%, and less than 50%. 3: Growth inhibition effect equal to or greater than 50%, and less than 70%. 4: Growth inhibition effect is equal to or greater than 70%, and less than 90%. 5: Growth inhibition effect is equal to or greater than 90%, or complete withering is achieved. ECHDG=Echinochloa crus-galli (L.) P. Beauv. var. formosensis Ohwi, MONVA=Monochoria vaginalis, SCIJU=Scirpus juncoides, CYMIC=Cyperus microiria.

[5] = test system: Monochoria vaginalis; experiment: Test for Herbicidal Effect in Flooding Treatment (#1), MONVA; details: for MONVA #1 herbicidal effect (growth inhibition grade): flooding treatment at seeding, dose 2 kg/ha, visual observation on day 21; for MONVA #1 herbicidal effect (growth inhibition rating 0-5): flooding treatment #1
Outline: as §1

Row | SMILES | ECHDG (2-2.5L) #2 herbicidal effect (growth inhibition grade) [1] | ECHDG #1 herbicidal effect (growth inhibition grade) [2] | SCIJU #1 herbicidal effect (growth inhibition grade) [3] | CYMIC #1 herbicidal effect (growth inhibition grade) [4] | MONVA #1 herbicidal effect (growth inhibition grade) [5] | MONVA #1 herbicidal effect (growth inhibition rating 0-5) [5] | ECHDG (2-2.5L) #2 herbicidal effect (growth inhibition rating 0-5) [1] | ECHDG #1 herbicidal effect (growth inhibition rating 0-5) [2] | SCIJU #1 herbicidal effect (growth inhibition rating 0-5) [3]
1 | CCOc1c(F)c(F)c(CS(=O)(=O)c2ncc(Cl)s2)c(F)c1F [Compound 1C-108] | 5 (Growth inhibition effect is equal to or greater than 90%, or complete withering is achieved) | 5 (Growth inhibition effect is equal to or greater than 90%, or complete withering is achieved) | 5 (Growth inhibition effect is equal to or greater than 90%, or complete withering is achieved) | 5 (Growth inhibition effect is equal to or greater than 90%, or complete withering is achieved) | – | – | – | – | –
2 | COc1ccc(Cl)c(CS(=O)(=O)c2ncc(Cl)s2)c1F [Compound 1C-71] | 5 (Growth inhibition effect is equal to or greater than 90%, or complete withering is achieved) | 5 (Growth inhibition effect is equal to or greater than 90%, or complete withering is achieved) | 5 (Growth inhibition effect is equal to or greater than 90%, or complete withering is achieved) | 5 (Growth inhibition effect is equal to or greater than 90%, or complete withering is achieved) | – | – | – | – | –
3 | COc1cccc(OC)c1CS(=O)(=O)c1ncc(Cl)s1 [Compound 1C-127] | – | 5 (Growth inhibition effect is equal to or greater than 90%, or complete withering is achieved) | 5 (Growth inhibition effect is equal to or greater than 90%, or complete withering is achieved) | 5 (Growth inhibition effect is equal to or greater than 90%, or complete withering is achieved) | – | – | – | – | –
4 | O=S(=O)(Cc1c(F)cccc1OCC(F)(F)F)c1ncc(Cl)s1 [Compound 1C-54] | 5 (Growth inhibition effect is equal to or greater than 90%, or complete withering is achieved) | 5 (Growth inhibition effect is equal to or greater than 90%, or complete withering is achieved) | 5 (Growth inhibition effect is equal to or greater than 90%, or complete withering is achieved) | – | 5 (Growth inhibition effect is equal to or greater than 90%, or complete withering is achieved) | – | – | – | –
5 | [2H]C([2H])(c1c(Cl)cccc1OCC(F)(F)F)S(=O)(=O)c1ncc(Cl)s1 [Compound 1C-135] | 5 (Growth inhibition effect is equal to or greater than 90%, or complete withering is achieved) | 5 (Growth inhibition effect is equal to or greater than 90%, or complete withering is achieved) | 5 (Growth inhibition effect is equal to or greater than 90%, or complete withering is achieved) | – | 5 (Growth inhibition effect is equal to or greater than 90%, or complete withering is achieved) | – | – | – | –
6 | [2H]C([2H])(c1c(Cl)cccc1OC(F)F)S(=O)(=O)c1ncc(Cl)s1 [Compound 1C-132] | 5 (Growth inhibition effect is equal to or greater than 90%, or complete withering is achieved) | 5 (Growth inhibition effect is equal to or greater than 90%, or complete withering is achieved) | 5 (Growth inhibition effect is equal to or greater than 90%, or complete withering is achieved) | – | 5 (Growth inhibition effect is equal to or greater than 90%, or complete withering is achieved) | – | – | – | –
7 | CC(c1c(F)cccc1OC(F)F)[S+]([O-])c1ncc(Cl)s1 (stereo not shown) [Compound 1B-16] | – | – | – | – | – | 5 (Growth inhibition effect is equal to or greater than 90%, or complete withering is achieved) | 3 (Growth inhibition effect equal to or greater than 50%, and less than 70%) | 5 (Growth inhibition effect is equal to or greater than 90%, or complete withering is achieved) | 5 (Growth inhibition effect is equal to or greater than 90%, or complete withering is achieved)
8 | [2H]C([2H])(c1ccccc1OCC(F)(F)F)S(=O)(=O)c1ncc(Cl)s1 [Compound 1C-134] | 5 (Growth inhibition effect is equal to or greater than 90%, or complete withering is achieved) | 5 (Growth inhibition effect is equal to or greater than 90%, or complete withering is achieved) | 5 (Growth inhibition effect is equal to or greater than 90%, or complete withering is achieved) | – | 5 (Growth inhibition effect is equal to or greater than 90%, or complete withering is achieved) | – | – | – | –
9 | O=S(=O)(Cc1c(OC(F)F)ccc(Cl)c1F)c1ncc(Br)s1 [Compound 1C-157] | 5 (Growth inhibition effect is equal to or greater than 90%, or complete withering is achieved) | 5 (Growth inhibition effect is equal to or greater than 90%, or complete withering is achieved) | 5 (Growth inhibition effect is equal to or greater than 90%, or complete withering is achieved) | – | 5 (Growth inhibition effect is equal to or greater than 90%, or complete withering is achieved) | – | – | – | –
10 | [O-][S+](Cc1ccccc1OC(F)F)c1ncc(Cl)s1 (stereo not shown) [Compound 1B-2] | – | – | – | – | – | 5 (Growth inhibition effect is equal to or greater than 90%, or complete withering is achieved) | 5 (Growth inhibition effect is equal to or greater than 90%, or complete withering is achieved) | 5 (Growth inhibition effect is equal to or greater than 90%, or complete withering is achieved) | 5 (Growth inhibition effect is equal to or greater than 90%, or complete withering is achieved)
11 | CC(C)(c1c(F)cccc1OCC(F)F)S(=O)(=O)c1ncc(Cl)s1 [Compound 1C-143] | 4 (Growth inhibition effect is equal to or greater than 70%, and less than 90%) | 5 (Growth inhibition effect is equal to or greater than 90%, or complete withering is achieved) | 5 (Growth inhibition effect is equal to or greater than 90%, or complete withering is achieved) | – | 5 (Growth inhibition effect is equal to or greater than 90%, or complete withering is achieved) | – | – | – | –
12 | O=S(=O)(Cc1c(F)cc(F)cc1OC(F)F)c1ncc(Br)s1 [Compound 1C-156] | 5 (Growth inhibition effect is equal to or greater than 90%, or complete withering is achieved) | 5 (Growth inhibition effect is equal to or greater than 90%, or complete withering is achieved) | 5 (Growth inhibition effect is equal to or greater than 90%, or complete withering is achieved) | – | 5 (Growth inhibition effect is equal to or greater than 90%, or complete withering is achieved) | – | – | – | –
13 | COc1cccc(Cl)c1C[S+]([O-])c1ncc(Br)s1 (stereo not shown) [Compound 1B-17] | – | – | – | – | – | 3 (Growth inhibition effect equal to or greater than 50%, and less than 70%) | 5 (Growth inhibition effect is equal to or greater than 90%, or complete withering is achieved) | 5 (Growth inhibition effect is equal to or greater than 90%, or complete withering is achieved) | 5 (Growth inhibition effect is equal to or greater than 90%, or complete withering is achieved)
14 | COC(=O)C(c1c(F)cccc1OC(F)F)S(=O)(=O)c1ncc(Cl)s1 (racemic) [Compound 1C-145] | 5 (Growth inhibition effect is equal to or greater than 90%, or complete withering is achieved) | 5 (Growth inhibition effect is equal to or greater than 90%, or complete withering is achieved) | 5 (Growth inhibition effect is equal to or greater than 90%, or complete withering is achieved) | – | 5 (Growth inhibition effect is equal to or greater than 90%, or complete withering is achieved) | – | – | – | –
